Source: patent US10563263B2, “Genetic polymorphisms associated with statin response and cardiovascular diseases, methods of detection and uses thereof” (CELERA CORPORATION, priority 2010, dated 2020)

System: revascularization, unstable angina requiring hospitalization, MI, all causes of death, or stroke
Experiment: PROVE IT-TIMI 22: SNP by treatment interaction (high-dose atorvastatin vs standard-dose pravastatin), logistic regression (synergy index), primary composite endpoint
Assay type: in vivo, human
Details: for OR: PROVEIT

## CC(C)c1c(C(=O)Nc2ccccc2)c(-c2ccccc2)c(-c2ccc(F)cc2)n1CC[C@@H](O)C[C@@H](O)CC(=O)O [Atorvastatin, atorvastatin]
Marker rs13129010, caseonly, model dom, End-point CHD, atorvastatin vs pravastatin
  OR: 1.39
Marker rs13150189, caseonly, model dom, End-point CVD, atorvastatin vs pravastatin
  OR: 1.36
Marker rs16934059, cohort, model dom, End-point CHD, atorvastatin vs pravastatin
  OR: 0.65
Marker rs17002013, cohort, model dom, End-point CVD, atorvastatin vs pravastatin
  OR: 1.38
Marker rs17688430, caseonly, model add, End-point CVD, atorvastatin vs pravastatin
  OR: 0.77
Marker rs17821383, caseonly, model rec, End-point CHD, atorvastatin vs pravastatin
  OR: 0.35
rs4773, caseonly, dom, CVD
  OR: 0.68
rs475420, caseonly, dom, CVD
  OR: 1.57
rs1045916, caseonly, add, CHD
  OR: 0.79
rs7067780, caseonly, dom, CVD
  OR: 1.41
rs9906737, caseonly, dom, CHD
  OR: 0.53
rs17644708, caseonly, rec, CVD
  OR: 0.34
rs742827, allele A, ADD, Imputed, atorvastatin vs pravastatin
  OR (SNP x treatment interaction): 1.396
rs879961, allele T, ADD, Imputed, atorvastatin vs pravastatin
  OR (SNP x treatment interaction): 1.178
rs906353, allele A, DOM, Imputed, atorvastatin vs pravastatin
  OR (SNP x treatment interaction): 1.22
rs915491, allele C, DOM, Imputed, atorvastatin vs pravastatin
  OR (SNP x treatment interaction): 1.329
rs915493, allele T, DOM, Imputed, atorvastatin vs pravastatin
  OR (SNP x treatment interaction): 1.329
rs915494, allele A, ADD, Imputed, atorvastatin vs pravastatin
  OR (SNP x treatment interaction): 1.399
rs915494, allele A, DOM, Imputed, atorvastatin vs pravastatin
  OR (SNP x treatment interaction): 1.486
rs917295, allele G, DOM, Imputed, atorvastatin vs pravastatin
  OR (SNP x treatment interaction): 0.5934
rs966583, allele A, ADD, Imputed, atorvastatin vs pravastatin
  OR (SNP x treatment interaction): 0.7596
rs966583, allele A, DOM, Imputed, atorvastatin vs pravastatin
  OR (SNP x treatment interaction): 0.6781
rs7180245, allele A, REC, Imputed, atorvastatin vs pravastatin
  OR (SNP x treatment interaction): 1.965
rs7283476, allele T, ADD, Imputed, atorvastatin vs pravastatin
  OR (SNP x treatment interaction): 0.413
rs7283476, allele T, DOM, Imputed, atorvastatin vs pravastatin
  OR (SNP x treatment interaction): 0.3545
rs7298255, allele A, ADD, Imputed, atorvastatin vs pravastatin
  OR (SNP x treatment interaction): 0.7433
rs7298255, allele A, DOM, Imputed, atorvastatin vs pravastatin
  OR (SNP x treatment interaction): 0.74
rs7392620, allele C, ADD, Imputed, atorvastatin vs pravastatin
  OR (SNP x treatment interaction): 0.6521
rs7446891, allele G, DOM, Imputed, atorvastatin vs pravastatin
  OR (SNP x treatment interaction): 0.5934
rs7448641, allele C, ADD, Imputed, atorvastatin vs pravastatin
  OR (SNP x treatment interaction): 0.9741
rs7448641, allele C, DOM, Imputed, atorvastatin vs pravastatin
  OR (SNP x treatment interaction): 1.136
rs7499402, allele A, ADD, Genotyped, atorvastatin vs pravastatin
  OR (SNP x treatment interaction): 2.08
rs7529851, allele A, ADD, Imputed, atorvastatin vs pravastatin
  OR (SNP x treatment interaction): 0.7324
rs7573951, allele G, ADD, Imputed, atorvastatin vs pravastatin
  OR (SNP x treatment interaction): 1.009
rs7599198, allele T, DOM, Imputed, atorvastatin vs pravastatin
  OR (SNP x treatment interaction): 0.9895
rs7607712, allele T, ADD, Imputed, atorvastatin vs pravastatin
  OR (SNP x treatment interaction): 1.357
rs7607712, allele T, DOM, Imputed, atorvastatin vs pravastatin
  OR (SNP x treatment interaction): 1.496
rs7621663, allele G, REC, Imputed, atorvastatin vs pravastatin
  OR (SNP x treatment interaction): 0.8874
rs7626584, allele G, ADD, Imputed, atorvastatin vs pravastatin
  OR (SNP x treatment interaction): 0.6617
rs7684899, allele C, ADD, Imputed, atorvastatin vs pravastatin
  OR (SNP x treatment interaction): 0.617
rs7684899, allele C, DOM, Imputed, atorvastatin vs pravastatin
  OR (SNP x treatment interaction): 0.5176
rs7701604, allele G, ADD, Imputed, atorvastatin vs pravastatin
  OR (SNP x treatment interaction): 0.9741
rs7701604, allele G, DOM, Imputed, atorvastatin vs pravastatin
  OR (SNP x treatment interaction): 1.136
rs7703676, allele C, ADD, Imputed, atorvastatin vs pravastatin
  OR (SNP x treatment interaction): 0.9741
rs7703676, allele C, DOM, Imputed, atorvastatin vs pravastatin
  OR (SNP x treatment interaction): 1.136
rs7708491, allele C, REC, Imputed, atorvastatin vs pravastatin
  OR (SNP x treatment interaction): 1.179
rs7711358, allele A, DOM, Imputed, atorvastatin vs pravastatin
  OR (SNP x treatment interaction): 0.593
rs7724761, allele T, REC, Imputed, atorvastatin vs pravastatin
  OR (SNP x treatment interaction): 1.207
rs7762993, allele A, ADD, Imputed, atorvastatin vs pravastatin
  OR (SNP x treatment interaction): 1.066
rs7762993, allele A, DOM, Imputed, atorvastatin vs pravastatin
  OR (SNP x treatment interaction): 1.079
rs7767265, allele G, ADD, Imputed, atorvastatin vs pravastatin
  OR (SNP x treatment interaction): 1.18
rs7768128, allele G, REC, Imputed, atorvastatin vs pravastatin
  OR (SNP x treatment interaction): 0.3066
rs7773151, allele C, DOM, Genotyped, atorvastatin vs pravastatin
  OR (SNP x treatment interaction): 1.038
rs7773210, allele A, DOM, Genotyped, atorvastatin vs pravastatin
  OR (SNP x treatment interaction): 1.038
rs7843510, allele G, DOM, Genotyped, atorvastatin vs pravastatin
  OR (SNP x treatment interaction): 0.9929
rs7939893, allele C, ADD, Imputed, atorvastatin vs pravastatin
  OR (SNP x treatment interaction): 0.6916
rs7939893, allele C, DOM, Imputed, atorvastatin vs pravastatin
  OR (SNP x treatment interaction): 0.506
rs7944513, allele T, REC, Imputed, atorvastatin vs pravastatin
  OR (SNP x treatment interaction): 1.787
rs7949720, allele G, ADD, Imputed, atorvastatin vs pravastatin
  OR (SNP x treatment interaction): 1.485
rs7949720, allele G, DOM, Imputed, atorvastatin vs pravastatin
  OR (SNP x treatment interaction): 1.52
rs7955901, allele C, ADD, Imputed, atorvastatin vs pravastatin
  OR (SNP x treatment interaction): 0.7285
rs7955901, allele C, DOM, Imputed, atorvastatin vs pravastatin
  OR (SNP x treatment interaction): 0.7139
rs7956274, allele T, ADD, Imputed, atorvastatin vs pravastatin
  OR (SNP x treatment interaction): 0.7156
rs7956274, allele T, DOM, Imputed, atorvastatin vs pravastatin
  OR (SNP x treatment interaction): 0.7031
rs7957932, allele G, ADD, Imputed, atorvastatin vs pravastatin
  OR (SNP x treatment interaction): 0.7234
rs7957932, allele G, DOM, Imputed, atorvastatin vs pravastatin
  OR (SNP x treatment interaction): 0.6888
rs7999518, allele A, REC, Imputed, atorvastatin vs pravastatin
  OR (SNP x treatment interaction): 0.4462
rs8026245, allele G, REC, Imputed, atorvastatin vs pravastatin
  OR (SNP x treatment interaction): 1.888
rs8060725, allele A, ADD, Genotyped, atorvastatin vs pravastatin
  OR (SNP x treatment interaction): 0.6772
rs8103016, allele A, ADD, Genotyped, atorvastatin vs pravastatin
  OR (SNP x treatment interaction): 1.223
rs8104182, allele G, ADD, Imputed, atorvastatin vs pravastatin
  OR (SNP x treatment interaction): 1.298
rs8104182, allele G, DOM, Imputed, atorvastatin vs pravastatin
  OR (SNP x treatment interaction): 1.4
rs8129461, allele G, ADD, Imputed, atorvastatin vs pravastatin
  OR (SNP x treatment interaction): 0.3726
rs8129461, allele G, DOM, Imputed, atorvastatin vs pravastatin
  OR (SNP x treatment interaction): 0.3187
rs8130021, allele G, ADD, Imputed, atorvastatin vs pravastatin
  OR (SNP x treatment interaction): 0.4152
rs8130021, allele G, DOM, Imputed, atorvastatin vs pravastatin
  OR (SNP x treatment interaction): 0.3565
rs9293464, allele T, REC, Imputed, atorvastatin vs pravastatin
  OR (SNP x treatment interaction): 1.207
rs9295154, allele G, DOM, Genotyped, atorvastatin vs pravastatin
  OR (SNP x treatment interaction): 1.463
rs9310221, allele A, DOM, Imputed, atorvastatin vs pravastatin
  OR (SNP x treatment interaction): 0.8966
rs9327555, allele T, DOM, Imputed, atorvastatin vs pravastatin
  OR (SNP x treatment interaction): 0.5934
rs9403367, allele C, DOM, Imputed, atorvastatin vs pravastatin
  OR (SNP x treatment interaction): 1.038
rs9419608, allele G, REC, Imputed, atorvastatin vs pravastatin
  OR (SNP x treatment interaction): 0.5885
rs9426437, allele T, DOM, Imputed, atorvastatin vs pravastatin
  OR (SNP x treatment interaction): 1.067
rs9454967, allele G, DOM, Imputed, atorvastatin vs pravastatin
  OR (SNP x treatment interaction): 0.9744
rs9635511, allele T, DOM, Imputed, atorvastatin vs pravastatin
  OR (SNP x treatment interaction): 0.8692
rs9812206, allele G, ADD, Imputed, atorvastatin vs pravastatin
  OR (SNP x treatment interaction): 1.042
rs9812206, allele G, DOM, Imputed, atorvastatin vs pravastatin
  OR (SNP x treatment interaction): 1.042
rs9813552, allele G, ADD, Imputed, atorvastatin vs pravastatin
  OR (SNP x treatment interaction): 1.042
rs9813552, allele G, DOM, Imputed, atorvastatin vs pravastatin
  OR (SNP x treatment interaction): 1.077
rs9815037, allele T, DOM, Imputed, atorvastatin vs pravastatin
  OR (SNP x treatment interaction): 1.083
rs9825349, allele A, DOM, Imputed, atorvastatin vs pravastatin
  OR (SNP x treatment interaction): 1.083
rs9840756, allele A, ADD, Imputed, atorvastatin vs pravastatin
  OR (SNP x treatment interaction): 0.9995
rs9840756, allele A, DOM, Imputed, atorvastatin vs pravastatin
  OR (SNP x treatment interaction): 1.031
